Source: US12622909B2, “Allosteric EGFR inhibitors and methods of use thereof” (Dana-Farber Cancer Institute, Inc., priority 2019, dated 2026)
Like-named read-outs stand apart in the source and are kept apart here.

Columns and labels:
EGFR L858R/T790M = EGFR L858R/T790M (Homo sapiens, UniProt P00533, L858R/T790M); assay: HTRF-based EGFR biochemical assay (L858R/T790M); settings: 100 μM ATP, enzyme 0.02 nM
Experimental: (§1) EGFR biochemical activity measurements were carried out using the homogeneous time-resolved fluorescence (HTRF) assay (Cisbio). Inhibitors and DMSO normalizations were first dispensed to empty black low-volume 384-well plates (Corning) with D300 digital liquid dispenser (HP). All reactions were carried out at room temperature and solutions were added to plates with a Multidrop Combi Reagent Dispenser (ThermoFisher). The reaction mixture (10 μL final volume) contained 1 μM tyrosine kinase peptide-biotin substrate and mutant EGFR in a reaction buffer (50 mM HEPES pH 7.0, 5 mM MgCl2, 1 mM MnCl2, 0.01% BSA, 2 mM TCEP, 0.1 mM NaVO4). […] Enzyme reaction solution (2× concentrations, 5 μL) was added to 384-well plates containing compounds and incubated for 30 mins. Enzyme reactions were initiated with the addition of 5 μL of ATP to a final concentration of 100 μM and reacted for 20 mins.

EGFR L858R = EGFR L858R (Homo sapiens, UniProt P00533, L858R); assay: HTRF-based EGFR biochemical assay (L858R); settings: 100 μM ATP, enzyme 0.1 nM
Sequence of EGFR L858R (P00533 25-1210 L858R): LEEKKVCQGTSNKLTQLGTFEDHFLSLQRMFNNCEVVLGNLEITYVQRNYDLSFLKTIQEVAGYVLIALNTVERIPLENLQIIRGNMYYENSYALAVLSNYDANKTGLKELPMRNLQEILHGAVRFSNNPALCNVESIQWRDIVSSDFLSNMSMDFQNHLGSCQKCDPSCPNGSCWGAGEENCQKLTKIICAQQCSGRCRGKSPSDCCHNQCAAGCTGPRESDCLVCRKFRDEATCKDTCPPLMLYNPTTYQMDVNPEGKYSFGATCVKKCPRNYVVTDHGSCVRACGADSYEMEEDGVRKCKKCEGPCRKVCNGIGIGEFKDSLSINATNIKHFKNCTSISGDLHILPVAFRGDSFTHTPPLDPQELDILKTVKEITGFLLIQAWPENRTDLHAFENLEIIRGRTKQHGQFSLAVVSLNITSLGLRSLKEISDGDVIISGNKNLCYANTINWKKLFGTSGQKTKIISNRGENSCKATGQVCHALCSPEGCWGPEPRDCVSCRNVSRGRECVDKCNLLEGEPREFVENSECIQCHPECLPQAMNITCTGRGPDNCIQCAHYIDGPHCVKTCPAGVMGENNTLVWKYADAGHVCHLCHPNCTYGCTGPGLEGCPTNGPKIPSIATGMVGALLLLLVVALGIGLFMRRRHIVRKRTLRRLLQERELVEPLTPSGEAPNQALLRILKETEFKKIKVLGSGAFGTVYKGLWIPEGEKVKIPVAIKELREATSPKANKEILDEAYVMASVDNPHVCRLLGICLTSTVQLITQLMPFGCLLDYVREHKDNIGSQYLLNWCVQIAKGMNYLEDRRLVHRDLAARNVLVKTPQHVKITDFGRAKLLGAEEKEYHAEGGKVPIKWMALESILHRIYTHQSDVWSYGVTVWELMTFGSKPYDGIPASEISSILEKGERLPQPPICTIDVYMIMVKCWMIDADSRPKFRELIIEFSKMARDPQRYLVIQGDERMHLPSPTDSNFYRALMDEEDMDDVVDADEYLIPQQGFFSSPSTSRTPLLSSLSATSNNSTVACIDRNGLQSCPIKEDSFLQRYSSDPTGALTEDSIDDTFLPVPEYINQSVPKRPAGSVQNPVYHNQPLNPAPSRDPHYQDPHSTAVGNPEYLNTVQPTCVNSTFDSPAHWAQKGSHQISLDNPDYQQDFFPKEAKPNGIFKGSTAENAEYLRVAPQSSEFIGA
Experimental: as §1, with “20 mins. Reactions were quenched with the addition of 10 μL of phospho-tyrosine antibody-Europium(III) cryptate (1-to-180 volume ratio) and Streptavidin-XL665 (46.7 nM) in EDTA-containing detection buffer, then incubated at room temperature for 1 hour, and read with a PHERAstar plate reader (excitation=337 nm, emission=620 nm and 665 nm).” for “20 mins.”

[1] = molecular target: EGFR L858R/T790M mutant Ba/F3 cells (Homo sapiens, UniProt P00533, T790M/L858R, cells depend on it); assay: Ba/F3 cell proliferation (Cell Titer Glo); type: cell-based, murine; settings: 72 hours
Sequence of EGFR L858R/T790M mutant Ba/F3 cells (P00533 whole entry T790M/L858R): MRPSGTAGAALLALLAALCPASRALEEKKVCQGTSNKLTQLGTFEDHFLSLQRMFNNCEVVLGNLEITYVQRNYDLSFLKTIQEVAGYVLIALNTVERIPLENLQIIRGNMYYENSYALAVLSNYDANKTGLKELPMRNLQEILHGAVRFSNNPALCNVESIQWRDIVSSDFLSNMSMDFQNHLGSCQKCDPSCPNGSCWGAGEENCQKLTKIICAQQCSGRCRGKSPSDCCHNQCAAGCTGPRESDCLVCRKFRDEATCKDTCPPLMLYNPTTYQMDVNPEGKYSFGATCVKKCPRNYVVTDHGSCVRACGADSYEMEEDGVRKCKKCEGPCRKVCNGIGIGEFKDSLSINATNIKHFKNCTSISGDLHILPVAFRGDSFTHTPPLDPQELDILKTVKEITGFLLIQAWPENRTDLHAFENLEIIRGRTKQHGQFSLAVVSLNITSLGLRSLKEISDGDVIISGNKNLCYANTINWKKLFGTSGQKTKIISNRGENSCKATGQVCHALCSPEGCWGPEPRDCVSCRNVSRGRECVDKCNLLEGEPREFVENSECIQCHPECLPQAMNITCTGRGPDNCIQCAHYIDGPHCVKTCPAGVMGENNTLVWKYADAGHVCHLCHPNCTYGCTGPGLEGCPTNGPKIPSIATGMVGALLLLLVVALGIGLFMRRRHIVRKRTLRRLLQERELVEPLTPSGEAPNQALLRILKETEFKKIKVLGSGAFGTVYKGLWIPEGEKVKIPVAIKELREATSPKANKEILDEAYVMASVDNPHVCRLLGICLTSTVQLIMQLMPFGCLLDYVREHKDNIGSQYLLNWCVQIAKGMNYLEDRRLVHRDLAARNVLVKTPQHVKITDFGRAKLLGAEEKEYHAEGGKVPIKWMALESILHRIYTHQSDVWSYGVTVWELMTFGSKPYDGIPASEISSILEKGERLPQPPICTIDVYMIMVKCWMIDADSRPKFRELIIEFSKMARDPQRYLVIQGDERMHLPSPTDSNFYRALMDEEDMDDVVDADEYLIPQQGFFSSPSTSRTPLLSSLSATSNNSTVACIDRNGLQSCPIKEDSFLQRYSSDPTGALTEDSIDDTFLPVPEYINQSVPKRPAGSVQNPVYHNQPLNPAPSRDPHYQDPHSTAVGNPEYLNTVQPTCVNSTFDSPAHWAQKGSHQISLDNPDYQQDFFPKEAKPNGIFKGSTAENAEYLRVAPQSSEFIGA
Source text: All cell lines were maintained in RPMI 1640 (Cellgro; Mediatech Inc., Herndon, CA) supplemented with 10% FBS, 100 units/mL penicillin, 100 units/mL streptomycin. The EGFR I941R mutation was introduced via site directed mutagenesis using the Quick Change Site-Directed Mutagenesis kit (Stratagene; La Jolla, CA) according to the manufacturer's instructions. All constructs were confirmed by DNA sequencing. The constructs were shuttled into the retroviral vector JP1540 using the Cre-recombination system (Agilent Technologies, Santa Clara, CA). Ba/F3 cells were then infected with retrovirus per standard protocols, as described previously (Zhou, et al, Nature 2009). Stable clones were obtained by selection in puromycin (2 μg/ml).
Growth and inhibition of growth was assessed by the Cell Titer Glo assay (Promega, Madison, WI) and was performed according to the manufacturer's instructions. The Cell Titer Glo assay is a luminescence-based method used to determine the number of viable cells based on quantitation of the ATP present, which is directly proportional to the amount of metabolically active cells present. […] All experimental points were set up in triplicates in 384-well plates and all experiments were repeated at least three times. […] The curves were fitted using a non-linear regression model with a sigmoidal dose response.

[2] = in combination with 1 μg/ml cetuximab, read-out: Cell IC50 BaF3 L858R/T790M compound + cetuximab
[3] = single agent, read-out: Cell IC50 EGFR BaF3 L858R/T790M

Sequence of EGFR L858R/T790M (P00533 25-1210 T790M/L858R): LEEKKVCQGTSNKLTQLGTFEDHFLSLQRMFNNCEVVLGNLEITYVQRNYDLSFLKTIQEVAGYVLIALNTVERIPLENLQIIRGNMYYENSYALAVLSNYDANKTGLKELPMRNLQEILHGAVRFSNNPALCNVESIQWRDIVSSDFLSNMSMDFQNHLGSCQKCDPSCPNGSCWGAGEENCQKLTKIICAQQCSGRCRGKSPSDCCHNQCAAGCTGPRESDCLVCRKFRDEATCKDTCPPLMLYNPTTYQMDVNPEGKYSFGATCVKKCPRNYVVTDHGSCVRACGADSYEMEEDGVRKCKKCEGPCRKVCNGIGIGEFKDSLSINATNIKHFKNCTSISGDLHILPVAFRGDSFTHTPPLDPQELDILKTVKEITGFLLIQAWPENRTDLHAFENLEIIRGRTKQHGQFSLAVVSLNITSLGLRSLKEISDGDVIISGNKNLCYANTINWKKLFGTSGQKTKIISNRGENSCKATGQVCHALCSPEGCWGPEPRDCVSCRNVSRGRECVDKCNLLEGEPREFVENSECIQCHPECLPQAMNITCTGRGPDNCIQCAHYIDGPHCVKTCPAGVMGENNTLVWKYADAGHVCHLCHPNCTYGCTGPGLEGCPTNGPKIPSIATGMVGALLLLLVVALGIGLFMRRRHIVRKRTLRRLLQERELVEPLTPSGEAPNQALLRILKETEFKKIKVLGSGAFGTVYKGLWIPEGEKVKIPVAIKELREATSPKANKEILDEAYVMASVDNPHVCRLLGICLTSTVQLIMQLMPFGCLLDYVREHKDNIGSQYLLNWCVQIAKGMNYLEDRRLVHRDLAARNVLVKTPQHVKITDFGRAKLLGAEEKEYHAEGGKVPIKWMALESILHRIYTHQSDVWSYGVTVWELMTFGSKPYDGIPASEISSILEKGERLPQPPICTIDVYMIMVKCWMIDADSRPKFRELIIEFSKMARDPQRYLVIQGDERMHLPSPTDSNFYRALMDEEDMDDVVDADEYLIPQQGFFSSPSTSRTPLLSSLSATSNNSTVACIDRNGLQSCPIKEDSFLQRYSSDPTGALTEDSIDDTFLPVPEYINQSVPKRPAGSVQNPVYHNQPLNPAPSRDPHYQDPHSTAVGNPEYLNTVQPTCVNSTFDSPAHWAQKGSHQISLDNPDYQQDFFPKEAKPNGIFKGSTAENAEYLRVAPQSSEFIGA

Structure (SMILES) | IC50 (EGFR L858R/T790M) | IC50 (EGFR L858R) | GI50 [1, 2] | GI50 [1, 3]
O=C(Nc1nccs1)C(c1ccccc1)n1ncc2cc(Br)ccc2c1=O (stereo not shown) [Compound 009, 2-(6-Bromo-1-oxophthalazin-2(1H)-yl)-2-phenyl-N-(thiazol-2-yl)-acetamide] | 10 nM | > 1000 nM | > 10000 nM | > 10000 nM
CN1CCC(c2ccc(-c3ccc4ncn(C(C(=O)Nc5nccs5)c5ccccc5F)c(=O)c4c3)cc2)CC1 (stereo not shown) [Compound 066, 2-(2-Fluorophenyl)-2-(6-(4-(1-methylpiperidin-4-yl)phenyl)-4-oxo-quinazolin-3(4H)-yl)-N-(thiazol-2-yl)-acetamide] | 0.2 nM | 2 nM | 20 nM | 1880 nM
CN1CCN(c2ccc(-c3ccc4ncn(C(C(=O)Nc5nccs5)c5ccccc5F)c(=O)c4c3F)cc2)CC1 (stereo not shown) [Compound 076, 2-(5-Fluoro-6-(4-(4-methyl-piperazin-1-yl)phenyl)-4-oxo-quinazolin-3(4H)-yl)-2-(2-fluoro-phenyl)-N-(thiazol-2-yl)acetamide] | 0.7 nM | 8 nM | 44 nM | 3360 nM
CN1CCC(c2ccc(-c3cnc4ncn(C(C(=O)Nc5nccs5)c5ccccc5)c(=O)c4c3)cc2)CC1 (stereo not shown) [Compound 058, 2-(6-(4-(1-Methylpiperidin-4-yl)phenyl)-4-oxopyrido[2,3-d]-pyrimidin-3(4H)-yl)-2-phenyl-N-(thiazol-2-yl)acetamide] | 2 nM | 8 nM | 12 nM | 930 nM
CN1CCN(c2ccc(-c3ccc4ncn(C(C(=O)Nc5nccs5)c5ccccc5)c(=O)c4c3F)cc2)CC1 (stereo not shown) [Compound 071, 2-(5-Fluoro-6-(4-(4-methyl-piperazin-1-yl)phenyl)-4-oxo-quinazolin-3(4H)-yl)-2-phenyl-N-(thiazol-2-yl)acetamide] | 0.7 nM | 5 nM | 20 nM | 2370 nM
CN1CCC(c2ccc(-c3ccc4c(F)cn(C(C(=O)Nc5nccs5)c5ccccc5)c(=O)c4c3)cc2)CC1 (stereo not shown) [Compound 036, 2-(4-Fluoro-7-(4-(1-methylpiperidin-4-yl)phenyl)-1-oxoisoquinolin-2(1H)-yl)-2-phenyl-N-(thiazol-2-yl)acetamide] | 0.3 nM | 4 nM | 23 nM | 920 nM
CN1CCC(c2ccc(-c3ccc4ncn(C(C(=O)Nc5nccs5)c5cccc(F)c5)c(=O)c4n3)cc2)CC1 (stereo not shown) [Compound 069, 2-(3-Fluorophenyl)-2-(6-(4-(1-methylpiperidin-4-yl)phenyl)-4-oxo-pyrido[3,2-d]pyrimidin-3(4H)-yl)-N-(thiazol-2-yl)acetamide] | 0.5 nM | 7 nM | 28 nM | 2810 nM
CN1CCC(c2ccc(-c3ccc4ncn(C(C(=O)Nc5ccccn5)c5cccc(F)c5)c(=O)c4c3)cc2)CC1 (stereo not shown) [Compound 032, 2-(3-Fluorophenyl)-2-(6-(4-(1-methyl-piperidin-4-yl)phenyl)-4-oxo-quinazolin-3(4H)-yl)-N-(pyridin-2-yl)-acetamide] | 0.4 nM | 4 nM | 21 nM | 1580 nM
COc1cccc(F)c1C(C(=O)Nc1nccs1)n1cnc2ccc(-c3ccc(N4CCN(C)CC4)cc3)cc2c1=O (stereo not shown) [Compound 077, 2-(2-Fluoro-6-methoxyphenyl)-2-(6-(4-(4-methylpiperazin-1-yl)phenyl)-4-exoquinazolin-3(4H)-yl)-N-(thiazol-2-yl)acetamide] | 17 nM | 35 nM | 2100 nM | 6460 nM
CN1CCN(c2ccc(-c3cc4ncn(C(C(=O)Nc5nccs5)c5ccccc5)c(=O)c4cc3F)cc2)CC1 (stereo not shown) [Compound 021, 2-(6-Fluoro-7-(4-(4-methylpiperazin-1-yl)phenyl)-4-oxoquinazolin-3(4H)-yl)-2-phenyl-N-(thiazol-2-yl)acetamide] | 16 nM | 103 nM | 970 nM | 2900 nM
CN1CCC(c2ccc(-c3ccc4ncn(C(C(=O)Nc5nccs5)c5cc(F)ccc5O)c(=O)c4n3)cc2)CC1 (stereo not shown) [Compound 084, 2-(5-Fluoro-2-hydroxyphenyl)-2-(6-(4-(1-methylpiperidin-4-yl)phenyl)-4-oxopyrido[3,2-d]pyrimidin-3(4H)-yl)-N-(thiazol-2-yl)acetamide] | 0.1 nM | 0.4 nM | 48 nM | 860 nM
O=C(Nc1nccs1)C(c1cccc(F)c1)n1ccc2ccc(Br)cc2c1=O (stereo not shown) [Compound 007, 2-(7-Bromo-1-oxoisoquinolin-2(1H)-yl)-2-(3-fluorophenyl)-N-(thiazol-2-yl)acetamide] | 48 nM | > 1000 nM | 1500 nM | > 10000 nM
CN1CCC(c2ccc(-c3cc4ncn(C(C(=O)Nc5nccs5)c5ccccc5)c(=O)c4cc3F)cc2)CC1 (stereo not shown) [Compound 020, 2-(6-Fluoro-7-(4-(1-methylpiperidin-4-yl)phenyl)-4-oxoquinazolin-3(4H)-yl)-2-phenyl-N-(thiazol-2-yl)acetamide] | 6 nM | 26 nM | 780 nM | 1420 nM
CN1CCC(c2ccc(-c3ccc4c(=O)n(C(C(=O)Nc5nccs5)c5ccccc5)cc(F)c4c3)cc2)CC1 (stereo not shown) [Compound 022, 2-(4-Fluoro-6-(4-(1-methylpiperidin-4-yl)phenyl)-1-oxoisoquinolin-2(1H)-yl)-2-phenyl-N-(thiazol-2-yl)acetamide] | 0.6 nM | 2 nM | 20 nM | 1260 nM
CN1CCN(c2ccc(-c3ccc4ncn(C(C(=O)Nc5nccs5)c5cccnc5)c(=O)c4c3)cc2)CC1 (stereo not shown) [Compound 064, 2-(6-(4-(4-Methylpiperazin-1-yl)-phenyl)-4-oxoquinazolin-3(4H)-yl)-2-(pyridin-3-yl)-N-(thiazol-2-yl)-acetamide] | 5 nM | 78 nM | 490 nM | 6150 nM
O=C(Nc1nccs1)C(c1cccc(F)c1)n1cnc2cc(Br)ccc2c1=O (stereo not shown) [Compound 010, 2-(7-Bromo-4-oxoquinazolin-3(4H)-yl)-2-(3-fluorophenyl)-N-(thiazol-2-yl)acetamide] | 54 nM | 1840 nM | > 10000 nM | > 10000 nM
O=C(Nc1nccs1)C(c1ccccc1)n1cc(F)c2ccc(Br)cc2c1=O (stereo not shown) [Compound 035, 2-(7-Bromo-4-fluoro-1-oxo-isoquinolin-2(1H)-yl)-2-phenyl-N-(thiazol-2-yl)acetamide] | 11 nM | 101 nM | 350 nM | > 10000 nM
CN1CCC(c2ccc(-c3ccc4ncn(C(C(=O)Nc5nccs5)c5cc(F)ccc5O)c(=O)c4c3F)cc2)CC1 (stereo not shown) [Compound 083, 2-(5-Fluoro-2-hydroxyphenyl)-2-(5-fluoro-6-(4-(1-methylpiperidin-4-yl)phenyl)-4-oxoquinazolin-3(4H)-yl)-N-(thiazol-2-yl)acetamide] | 0.1 nM | 0.2 nM | 9 nM | 40 nM
CN1CCC(c2ccc(-c3ccc4ncn(C(C(=O)Nc5nccs5)c5cccc(F)c5)c(=O)c4c3F)cc2)CC1 (stereo not shown) [Compound 070, 2-(5-Fluoro-6-(4-(1-methylpiperidin-4-yl)phenyl)-4-oxoquinazolin-3-(4H)-yl)-2-(3-fluorophenyl)-N-(thiazol-2-yl)acetamide] | 0.2 nM | 1 nM | 5 nM | 550 nM
